Measured values reported in EP4818172A1, “ASCORBIC ACID DERIVATIVES AND COSMETIC CONTAINING SAME” (Seiwa Kasei Co., Ltd., priority 2023, dated 2025).

Legend:
[1] = test system: Normal human dermal fibroblasts (NHDF); assay: Hyaluronic acid production promoting effect (ELISA of supernatant); format: cell-based; settings: sample at 10 mM or less in serum-free D-MEM, cultured 48 hours, % of control group (100%), N=3
Outline: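 NHDF pre-incubated 24 h in D-MEM/5% FBS, then exposed to samples (10 mM or less) in serum-free D-MEM for 48 h. Supernatant hyaluronic acid measured by ELISA, triplicate. Output expressed as % of untreated control (control = 100%), graded ±/+/++ at <100%, 100-120%, >120%.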

[2] = test system: Normal human epidermal keratinocytes; assay: Antioxidant effect: ROS production inhibition after H2O2 (DCFHDA probe); format: cell-based; settings: sample at 10 mM or less, 24 hours, then 0.2 mM H2O2 for 2 hours, N=4
Procedure: Normal human epidermal keratinocytes were seeded onto a 96-well plate using KG2 medium at a cell density of 2.0 × 10^4 cells/well. After 24 hours of pre-incubation, samples adjusted to a predetermined concentration in KG2 medium were added to each well. After 24 hours of incubation, the medium was removed, followed by washing with HBSS(-) and the incorporation of the ROS-reactive fluorescent probe DCFHDA for 30 minutes. The cells were again washed with HBSS(-), treated with 0.2 mM H2O2, and incubated for 2 hours. The fluorescence intensity was measured, and the amount of ROS produced per unit protein was calculated by dividing the fluorescence intensity by the amount of protein quantified by the BCA method, resulting in an analytical value of 1. Furthermore, the amount of ROS production calculated without adding the sample adjusted to a predetermined concentration using the above test method was set to analytical value 2; and the amount of ROS production calculated without adding the sample or 0.2 mM H2O2 was set to analytical value 3.
ROS production inhibition rate (%) was calculated using the following formula. The higher the ROS production inhibition rate, the greater the antioxidant effect can be evaluated to be.
ROS production inhibition rate (%) = [(analysis value 2) - (analysis value 1)] / [(analysis value 2) - (analysis value 3)] × 100
The ROS production inhibition rate when the sample was measured at a concentration of 10 mM or less was evaluated as follows. Note that the measurement was performed in N=4. • <20%: + • 20-40%: ++ • 40%<: +++ [Table 21]

[3] = Stability test -2: residual rate in cream of pH 7 or 9 stored at 50°C; format: physicochemical; settings: cream with 4.0 W/W% derivative
Outline: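 Each derivative was formulated into a cream by heating and mixing two component phases, cooling, then adding a third component, giving a final pH of 7 or 9. The creams were kept at 50°C for up to 4 weeks, and the remaining amount of derivative was measured to give a residual rate.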

[4] = Stability test -2: odor and coloration of cream stored at 50°C; format: physicochemical; settings: Test Example 2, cream stored at 50°C, total score of 10 panelists
Outline: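 Creams at pH 7 or 9 containing the test samples stored at 50°C for 4 weeks. Odor and coloration scored by 10 panelists against the freshly prepared cream; total scores classed as ○ (25 or more), △ (16-24) or × (15 or less).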

[5] = test system: Normal human dermal fibroblasts; assay: Collagen production promoting effect (ELISA of free collagen in supernatant); format: cell-based; settings: sample at 10 mM or less, cultured 48 hours, % of control group (100%), N=3
Procedure: Normal human dermal fibroblasts were prepared in D-MEM containing 5% (v/v) fetal bovine serum to a cell density of 2.5 × 10^4 cell s /well, and then pre-incubated for 24 hours on a 96-well plate. After removing the medium, samples prepared to a predetermined concentration in D-MEM containing 5% (v/v) fetal bovine serum were added to each well and cultured for 48 hours. After the culture was completed, the amount of free collagen in the supernatant was quantified by ELISA. Measurements were performed in triplicate (N=3).
The amount of collagen produced when the sample was measured at a concentration of 10 mM or less was compared with that of the control group, and the results (% values when the control group was set to 100%) are shown in Table 17 based on the following criteria. • <100%: ± • 100-140%: + • 140%<: ++ [Table 17]

[6] = Stability test -1: residual rate of 1% aqueous solutions at pH 3 to 9 on storage; format: physicochemical; settings: 1% aqueous solution
[7] = Stability test -1: odor and coloration scored by 10 panelists; format: physicochemical; settings: Test Example 1, aqueous solution, total score of 10 panelists
Procedure: For each of the samples of Synthesis Examples 1 to 6, 1% aqueous solutions were adjusted to pH 3, 5, 7, 8, and 9 with a dilute potassium hydroxide aqueous solution, and then placed in 50 mL screw tubes and • 2: Color changes compared to immediately after preparation. • 1: Strongly colored compared to immediately after preparation. Based on the results of the above evaluation, the following classification was made: • ○: Total score of 10 panelists is 25 or more • △: Total score of 10 panelists is 16-24 • ×: The total score of 10 panelists is 15 or less [Table 10]

| Compound | Hyaluronic acid production-promoting effect [1] | Antioxidant effect (ROS production inhibition rate) [2] | Collagen production-promoting effect [5] | Residual Rate After 2 weeks ([6]; pH3, stored at 50°C) | Residual Rate After 4 weeks ([6]; pH3, stored at 50°C) | Residual Rate After 2 weeks ([6]; pH5, stored at 50°C) | Residual Rate After 4 weeks ([6]; pH5, stored at 50°C) | Residual Rate After 2 weeks ([6]; pH7, stored at 50°C) | Residual Rate After 4 weeks ([6]; pH7, stored at 50°C) | Residual Rate After 2 weeks ([6]; pH8, stored at 50°C) | Residual Rate After 4 weeks ([6]; pH8, stored at 50°C) | Residual Rate After 2 weeks ([6]; pH9, stored at 50°C) | Residual Rate After 4 weeks ([6]; pH9, stored at 50°C) | Coloration After 2 weeks [7] | Odor After 2 weeks [7] | Coloration After 4 weeks [7] | Odor After 4 weeks [7] | other results |
| --- | --- | --- | --- | --- | --- | --- | --- | --- | --- | --- | --- | --- | --- | --- | --- | --- | --- | --- |
| CCCCCCCCCCCC(=O)OCC(OC(=O)CCCCCCCCCCC)C1OC(=O)C2=C1OCCCCO2 (stereo not shown) [synthesis example 14, 5,6-O-dilauroyl-2,3-O-(1,4-butanediyl) ascorbic acid] | ++ (120%<) | + (<20%) |  |  |  |  |  |  |  |  |  |  |  |  |  |  |  | Residual Rate After 2 weeks ([3]; pH7, stored at 50°C): ⊚ (95% or more); Residual Rate After 4 weeks ([3]; pH7, stored at 50°C): ⊚ (95% or more); Residual Rate After 2 weeks ([3]; pH9, stored at 50°C): ⊚ (95% or more); Residual Rate After 4 weeks ([3]; pH9, stored at 50°C): ○ (85% or more, less than 95%); Coloration After 2 weeks [4]: ○ (Total score of 10 panelists is 25 or more); Odor After 2 weeks [4]: ○ (Total score of 10 panelists is 25 or more); Coloration After 4 weeks [4]: ○ (Total score of 10 panelists is 25 or more); Odor After 4 weeks [4]: Δ |
| O=C1OC2C(O)COC23OCCCOC13 (stereo not shown) [synthesis Example 34, 4-hydroxy-2,6,9,13-tetraoxatricyclo [6.5.0.0^1.5] tridecan-7-one] | + (100-120%) | ++ (20-40%) |  |  |  |  |  |  |  |  |  |  |  |  |  |  |  |  |
| CCCCCCCCCCCC(=O)OCC(O)C1OC(=O)C2=C1OCCCCO2 (stereo not shown) [synthesis example 13, 6-O-lauroyl-2,3-O-(1,4-butanediyl) ascorbic acid] | ++ (120%<) | + (<20%) |  |  |  |  |  |  |  |  |  |  |  |  |  |  |  | Residual Rate After 2 weeks ([3]; pH7, stored at 50°C): ⊚ (95% or more); Residual Rate After 4 weeks ([3]; pH7, stored at 50°C): ⊚ (95% or more); Residual Rate After 2 weeks ([3]; pH9, stored at 50°C): ⊚ (95% or more); Residual Rate After 4 weeks ([3]; pH9, stored at 50°C): ⊚ (95% or more); Coloration After 2 weeks [4]: ○ (Total score of 10 panelists is 25 or more); Odor After 2 weeks [4]: ○ (Total score of 10 panelists is 25 or more); Coloration After 4 weeks [4]: ○ (Total score of 10 panelists is 25 or more); Odor After 4 weeks [4]: Δ |
| O=C1O[C@H]([C@@H](O)CO)C(O)=C1OCC(O)CO (stereo partly shown) [2-O-glyceryl ascorbic acid, reference compound] |  | + (<20%) | + (100-140%) |  |  |  |  |  |  |  |  |  |  |  |  |  |  |  |
| O=C1O[C@H]([C@@H](O)CO)C(OCC(O)CO)=C1O (stereo partly shown) [3-O-glyceryl ascorbic acid, reference compound] |  | + (<20%) | + (100-140%) |  |  |  |  |  |  |  |  |  |  |  |  |  |  |  |
| O=C1OC2C(O)COC23OCCCCOC13 (stereo not shown) [synthesis Example 33, 4-hydroxy-2,6,9,14-tetraoxatricyclo [6.6.0.0^1.5] tetradecan-7-one] | + (100-120%) | ++ (20-40%) |  |  |  |  |  |  |  |  |  |  |  |  |  |  |  |  |
| O=C1OC(C(O)CO)C2=C1OCCO2 (stereo not shown) [synthesis example 1, 2,3-O-(1,2-ethanediyl) ascorbic acid] | + (100-120%) |  | + (100-140%) | ⊚ | ⊚ | ⊚ | ⊚ | ○ | Δ | Δ | × | × | × | ○ (Total score of 10 panelists is 25 or more) | ○ (Total score of 10 panelists is 25 or more) | Δ | ○ (Total score of 10 panelists is 25 or more) |  |
| O=C1OC(C(O)CO)C2=C1OCC(O)CO2 (stereo not shown) [synthesis example 4, 2,3-O-(2-hydroxypropane-1,3-diyl) ascorbic acid] | ++ (120%<) |  | + (100-140%) | ⊚ | ⊚ | ⊚ | ⊚ | ○ | ○ | ○ | Δ | ○ | Δ | ○ (Total score of 10 panelists is 25 or more) | ○ (Total score of 10 panelists is 25 or more) | ○ (Total score of 10 panelists is 25 or more) | ○ (Total score of 10 panelists is 25 or more) |  |
| O=C1OC(C(O)CO)C2=C1OCC1(COC1)CO2 (stereo not shown) [synthesis example 6, 2,3-O-(3,3-dimethyleneoxetane) ascorbic acid] | ++ (120%<) |  | ++ (140%<) | ⊚ | ⊚ | ⊚ | ⊚ | ○ | ○ | ○ | Δ | ○ | Δ | ○ (Total score of 10 panelists is 25 or more) | ○ (Total score of 10 panelists is 25 or more) | ○ (Total score of 10 panelists is 25 or more) | ○ (Total score of 10 panelists is 25 or more) |  |
